Assay [1] concerns the target T1, matriptase-2 (MT2) (Homo sapiens, UniProt Q8IU80).
T1 construct: purchased Enzo Life Sciences, Switzerland
T1 sequence (Q8IU80 1-811): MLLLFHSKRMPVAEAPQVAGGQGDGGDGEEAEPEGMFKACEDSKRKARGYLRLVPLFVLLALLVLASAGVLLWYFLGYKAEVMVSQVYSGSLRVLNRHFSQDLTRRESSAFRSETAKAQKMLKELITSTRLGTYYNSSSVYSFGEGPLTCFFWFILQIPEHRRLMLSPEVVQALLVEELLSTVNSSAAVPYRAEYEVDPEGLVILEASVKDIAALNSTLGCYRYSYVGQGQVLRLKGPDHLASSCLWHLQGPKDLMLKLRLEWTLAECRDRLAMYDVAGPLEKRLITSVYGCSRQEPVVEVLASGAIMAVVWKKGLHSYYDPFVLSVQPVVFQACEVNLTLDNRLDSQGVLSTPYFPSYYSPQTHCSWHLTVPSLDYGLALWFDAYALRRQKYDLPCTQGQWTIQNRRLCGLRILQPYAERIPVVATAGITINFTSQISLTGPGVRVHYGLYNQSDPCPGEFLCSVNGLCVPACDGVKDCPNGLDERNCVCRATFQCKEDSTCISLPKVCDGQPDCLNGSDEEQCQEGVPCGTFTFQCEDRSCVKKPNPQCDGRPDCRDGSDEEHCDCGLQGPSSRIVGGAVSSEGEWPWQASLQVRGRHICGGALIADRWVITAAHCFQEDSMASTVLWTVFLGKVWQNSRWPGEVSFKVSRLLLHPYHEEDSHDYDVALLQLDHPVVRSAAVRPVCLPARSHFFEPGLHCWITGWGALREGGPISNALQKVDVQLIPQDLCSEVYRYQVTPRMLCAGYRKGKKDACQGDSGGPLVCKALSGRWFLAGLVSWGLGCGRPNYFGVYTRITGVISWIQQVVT
The assay is described as follows: Selectivity assay against matriptase-2. It counts as biochemical. Conditions: Figure S1. The procedure: The selectivities of the strongest furin inhibitors 3, 5, 6, and FI were assessed using commercially available, purified, recombinant proteases, namely, matriptase-1 (MT1) and matriptase-2 (MT2). Both enzymes belong to the type II transmembrane serine proteases, present trypsin-like specificity, and share high structural similarity but differ in biological activity.[33] […]
(§1) The IC50 values (inhibitor concentrations giving 50% inhibition of enzyme activity) were calculated from plots of enzyme activity (% of control sample) versus the inhibitor’s concentration using a four-parameter fit model (GraFit 5.0.12 Erithacus Software Ltd.). The IC50 values were determined from triplicate measurements with at least seven different inhibitor concentrations. The K i values […] were calculated using the Cheng-Prusoff equation, assuming the competitive mode of inhibition, according to the following relationship: IC50 = K i(1+S/Km). All measurements were performed using a Fluostar Omega microplate reader (BMG Labtech, Germany) and 96-well black plates (BRAND, Germany). Recombinant human matriptase-1/ST14 catalytic domain was purchased from R&D Systems, USA. Recombinant human matriptase-2 was obtained from Enzo Life Sciences, Switzerland.
(§2) Soluble human recombinant furin was kindly gifted by Dr Anna Kwiatkowska (group of Prof. Robert Day from Université de Sherbrooke).4
(§3) The following assay buffers were used: […] (matriptase-1 and matriptase-2), pH 7.5 100 mM HEPES with 1 mM CaCl 2 and 1.8 mg/mL BSA (furin). The substrates used in the assays were as follows: for matriptase-1 and matriptase-2 Boc-Gln-Ala-Arg-AMC (Pepta Nova, Germany) in final concentration of 5 µM, for furin […] (Pepta Nova, Germany) in final concentration of 20 µM. Enzymes concentrations were as follows: 1.25 ng/mL of matriptase-1, 1.51 U/mL for matriptase-2, and 1.1 nM for furin. In the case of matriptase-1 and matripase-2 concentrations were calculated according to information provided by the suppliers.
In short, the tested compounds were added to the appropriate protease in different concentrations and incubated in an assay buffer at 37 °C for 30 min. […] Reactions were monitored for at least 40 min at 37 °C. […] The percentage inhibition of an enzyme was calculated relative to the control sample without an inhibitor. The K m value for furin substrate was determined by incubating the enzyme with its substrate in various concentrations as recommended.5 Plots of the substrate concentration versus the initial reaction velocity were analyzed according to Michaelis-Menten equation using GraFit 5.0.12 Erithacus Software Ltd. A double reciprocal (Lineweaver-Burk) plot was used to determine the Michaelis constant K m value. […]

The target of assay [2] is T2, human recombinant furin (Homo sapiens, UniProt P09958).
T2 construct: Soluble human recombinant furin was kindly gifted; gift of Dr Anna Kwiatkowska (group of Prof. Robert Day, Université de Sherbrooke)
T2 sequence (P09958 108-715 limits assumed): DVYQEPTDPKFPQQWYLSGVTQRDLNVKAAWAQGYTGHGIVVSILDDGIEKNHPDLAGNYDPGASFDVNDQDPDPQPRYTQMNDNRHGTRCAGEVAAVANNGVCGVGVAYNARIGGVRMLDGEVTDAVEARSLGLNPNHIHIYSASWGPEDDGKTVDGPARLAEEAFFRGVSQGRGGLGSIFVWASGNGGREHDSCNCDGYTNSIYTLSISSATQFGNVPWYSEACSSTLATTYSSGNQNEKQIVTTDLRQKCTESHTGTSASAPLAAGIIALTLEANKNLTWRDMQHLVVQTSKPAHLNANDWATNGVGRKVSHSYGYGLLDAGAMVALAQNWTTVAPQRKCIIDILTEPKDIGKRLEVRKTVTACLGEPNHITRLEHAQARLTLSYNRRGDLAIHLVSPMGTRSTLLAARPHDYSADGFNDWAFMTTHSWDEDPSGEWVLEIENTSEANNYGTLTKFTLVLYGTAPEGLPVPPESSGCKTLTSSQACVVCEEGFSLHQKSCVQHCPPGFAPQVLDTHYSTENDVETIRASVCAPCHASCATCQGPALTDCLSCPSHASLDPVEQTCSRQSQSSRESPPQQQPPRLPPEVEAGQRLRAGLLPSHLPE
It counts as biochemical. Conditions: for Ki / IC50: ± SEM; for Ki: Cheng-Prusoff from IC50, competitive mode assumed, Km 1.90 µM; for IC50: triplicate, substrate 20 µM. The procedure:
Initially, the activities of the furin inhibitors were screened at three concentrations, i.e., 2.4, 24.0, and 77.0 nM (Figure 4). For selected peptides 3, 5, and 6 and the reference FI, the inhibitory constants (Ki) were calculated (Table 2). Except for the bicyclic peptide 4, all of the inhibitors almost completely abolished the enzyme activity at the highest tested concentration. Peptide 4 was explicitly the weakest inhibitor in the series, also when compared with its monocyclic disulfide-bridged counterpart 1. When the inhibitory activities were analyzed at the lowest tested concentration (2.4 nM), three peptides (3, 5, and 6) reduced the furin activity to less than 50% of its initial noninhibited activity. All of them have an additional basic amino acid at their N-termini (in MD simulations this is depicted as a residue with number “0”). […] Such close inhibitory potency was not observed in the case of an analogous pair, i.e., 2 and 5. […] The two disulfide-bridged peptides, FI and 1, differ only at the P4 position, having Lys and Arg, respectively. […]
as §1, §2, §3
In short, the tested compounds were added to the appropriate protease in different concentrations and incubated in an assay buffer at 37 °C for 30 min. After this time, a solution of appropriate substrate was added. Reactions were monitored for at least 40 min at 37 °C. The final volume in each well was 200 µL for matriptases and 100 µL for furin. Measurements were carried out using excitation and emission wavelengths of 380 nm and 450 nm. The percentage inhibition of an enzyme was calculated relative to the control sample without an inhibitor. The K m value for furin substrate was determined by incubating the enzyme with its substrate in various concentrations as recommended.5 Plots of the substrate concentration versus the initial reaction velocity were analyzed according to Michaelis-Menten equation using GraFit 5.0.12 Erithacus Software Ltd. A double reciprocal (Lineweaver-Burk) plot was used to determine the Michaelis constant K m value. K m value determined for furin was 1.90 µM.
Total furin-like enzyme inhibition/activity in PANC-1 cell lysates
Cell line and cell culture. The pancreatic cancer cell line, PANC-1, was obtained from the American Type Culture Collection, ATCC (Manassas, USA). […]

The structures appear in SMILES notation. Where two headings read alike, the source gives them in different places. Bridge positions count the residues as written; N and C are the ends. Peptide text beside a SMILES is read from it.

Experimental findings from paper PMC10107917 (ACS Medicinal Chemistry Letters, 2023) are described below.

For `CC[C@H](C)[C@@H]1NC(=O)[C@@H]2CCCN2C(=O)[C@@H]2CCCN2C(=O)[C@H]([C@@H](C)CC)NC(=O)[C@H](CO)NC(=O)[C@H](CCCCN)NC(=O)[C@H](CCCCN)NC(=O)[C@@H](NC(=O)[C@H](CCCNC(=N)N)NC(=O)[C@@H](N)CCCCN)CSSC[C@@H](C(=O)N[C@@H](Cc2ccccc2)C(N)=O)NC1=O` [FI, Lys-Arg-Cys(&)-Lys-Lys-Ser-Ile-Pro-Pro-Ile-Cys(&)-Phe-NH2, reference compound] (H-KRCKKSIPPICF-NH2; disulfide 3-11; N-terminus assumed), the “activity in assay with MT2” value in assay [1] is “only irrelevant activity”. Also, the “furin activity versus control with no inhibitor added” value amounted to 66.76% in assay [2] (inhibitor 2.4 nM), 9.86% in assay [2] (inhibitor 24.0 nM) and 0.31% in assay [2] (inhibitor 77.0 nM (highest tested concentration)). The Ki in assay [2] was found to be 0.38 ± 0.02 nM. The IC50 in assay [2] was 4.42 ± 0.22 nM.
Take `CC[C@H](C)[C@@H]1NC(=O)[C@@H]2CCCN2C(=O)[C@@H]2CCCN2C(=O)[C@H]([C@@H](C)CC)NC(=O)[C@H](CO)NC(=O)[C@H](CCCCN)NC(=O)[C@H](CCCCN)NC(=O)[C@@H](NC(=O)[C@H](CCCNC(=N)N)NC(=O)[C@H](CCCNC(=N)N)NC(=O)[C@@H](N)CCCNC(=N)N)CSSC[C@@H](C(=O)N[C@@H](Cc2ccccc2)C(N)=O)NC1=O` [inhibitor 3, Arg-Arg-Arg-Cys(&)-Lys-Lys-Ser-Ile-Pro-Pro-Ile-Cys(&)-Phe-NH2] (H-RRRCKKSIPPICF-NH2; disulfide 4-12): the “activity in assay with MT2” value in assay [1] is recorded as “only irrelevant activity”. In assay [2], the Ki is 0.27 ± 0.02 nM and the IC50 came out at 3.07 ± 0.2 nM.
Turning to `CC[C@H](C)[C@@H]1NC(=O)[C@@H]2CCCN2C(=O)[C@@H]2CCCN2C(=O)[C@H]([C@@H](C)CC)NC(=O)[C@H](CO)NC(=O)[C@H](CCCCN)NC(=O)[C@H](CCCCN)NC(=O)[C@@H]2CSSC[C@H](NC1=O)C(=O)N[C@@H](Cc1ccccc1)C(=O)N[C@@H](CCCCN)C(=O)N[C@@H](CCCNC(=N)N)C(=O)N[C@@H](CCCNC(=N)N)C(=O)N2` [inhibitor 5, &^1Lys-Arg-Arg-Cys(&^2)-Lys-Lys-Ser-Ile-Pro-Pro-Ile-Cys(&^2)-Phe&^1] (cyclo(KRRCKKSIPPICF); disulfide 4-12), the “activity in assay with MT2” value in assay [1] is “only irrelevant activity”. For the same compound, in assay [2], the Ki turned out to be 0.21 ± 0.01 nM and the IC50 came to 2.41 ± 0.12 nM.
Taken in the same sequence, the figures for `CC[C@H](C)[C@@H]1NC(=O)[C@@H]2CCCN2C(=O)[C@@H]2CCCN2C(=O)[C@H]([C@@H](C)CC)NC(=O)[C@H](CO)NC(=O)[C@H](CCCCN)NC(=O)[C@H](CCCCN)NC(=O)[C@@H]2CSSC[C@H](NC1=O)C(=O)N[C@@H](Cc1ccccc1)C(=O)N[C@@H](CCCNC(=N)N)C(=O)N[C@@H](CCCNC(=N)N)C(=O)N[C@@H](CCCNC(=N)N)C(=O)N2` [inhibitor 6, &^1Arg-Arg-Arg-Cys(&^2)-Lys-Lys-Ser-Ile-Pro-Pro-Ile-Cys(&^2)-Phe&^1] (cyclo(RRRCKKSIPPICF); disulfide 4-12) were “only irrelevant activity”, 0.25 ± 0.01 nM and 2.91 ± 0.17 nM.
